Measured values from US9045481B2 (priority 2012, dated 2015).

Key:
a3b4 nAChRs = a3b4 nAChRs (Homo sapiens, UniProt P30926+P32297); assay: Relative potency at a3b4 nAChRs (epibatidine-induced calcium response), cell line not stated; format: cell-based
Procedure: Nicotinic functional assays are performed using the Molecular Devices FLIPR® Calcium 5 Assay Kit. HEK293 cells overexpressing a3β4, a4β2 or α7 (50,000 cells per well in 100 μl growth media) and are plated in clear bottom black walled 96-well microplates and incubated for 24-48 hours at 37° C., 5% CO2 until a 80-90% confluent monolayer is formed. On the day of the assay, 100 μl of Calcium 5 Dye is added to each well. Following addition of dye, cells are incubated at 25° C. for 60 minutes. Following dye loading, 50 μl of a 5× solution of reference or test compound of appropriate concentration range (0.01-30 μM), prepared in 20 mM HEPES pH 7.4 in HBSS, is added to each well. Plates are then transferred to the Molecular Devices Flexstation® which transfers 50 μL of a 5× solution (500 nM) of epibatine to each well to initiate the Ca+2 flux. Additional wells (in quadruplicate) are prepared with no added test or reference ligand for measurement of 100% flux. The RFU (relative fluorescence units) in the presence of the test or reference compounds is then expressed on the percent scale. The percent inhibition of epibatidine induced Ca^+2 flux is calculated as follows: % inhibition=100%−% RFU (relative fluorescence units). The IC50 values for reference and test compounds are obtained by fitting normalized RFU data using Graphpad Prism software.

[1] = CNS penetration across the blood brain barrier; format: in vivo, mice
Procedure: Mice are dosed with compounds. Brain to blood ratios are determined by HPLC and LC/MS/MS analysis following oral administration of the test compounds in mice.

mu opioid receptor (mOR) = target: T1, mu opioid receptor (mOR) (Homo sapiens, UniProt P35372); assay: Mu opioid receptor radioligand binding; conditions: called weak affinity; read-out: Affinity at mu opioid receptors
T1 construct: expressed in transfected cells; host or cells: CHO or HEK293
Procedure: Established radioligand binding methods are used to evaluate the ability of the compounds to block reuptake of serotonin and dopamine in membrane preparations of synaptosomes. Equilibrium binding affinity values is determined for each compound at opioid receptors (μ and κ subtypes) and biogenic amine transporters (DAT and SERT). Where possible, binding experiments utilize membranes derived from CHO or HEK293 cells engineered to overexpress the human form of the receptor or transporter of interest. Radiolabeling of opioid receptors, and biogenic amine transporters utilizes conventional radioligands, buffers and incubation conditions according to published assays.
Test compounds, reference compounds and the radioligand (Kd value) are added to binding buffer. Assays are run with test or reference compound over a range of concentration (0.0001-10 uM) in triplicate using a 96-well sample plate containing radioligands specific for the target receptor or transporter. […] Bound radioactivity is counted in a Microbeta scintillation counter. Total bound radioactivity is estimated from triplicate wells containing no test or reference compound, together with nonspecific binding and filter blanks. The average bound radioactivity in the presence of the test compounds is expressed % inhibition=100%−% radioactivity bound. […]

Sequence of a3b4 nAChRs (P30926 22-498): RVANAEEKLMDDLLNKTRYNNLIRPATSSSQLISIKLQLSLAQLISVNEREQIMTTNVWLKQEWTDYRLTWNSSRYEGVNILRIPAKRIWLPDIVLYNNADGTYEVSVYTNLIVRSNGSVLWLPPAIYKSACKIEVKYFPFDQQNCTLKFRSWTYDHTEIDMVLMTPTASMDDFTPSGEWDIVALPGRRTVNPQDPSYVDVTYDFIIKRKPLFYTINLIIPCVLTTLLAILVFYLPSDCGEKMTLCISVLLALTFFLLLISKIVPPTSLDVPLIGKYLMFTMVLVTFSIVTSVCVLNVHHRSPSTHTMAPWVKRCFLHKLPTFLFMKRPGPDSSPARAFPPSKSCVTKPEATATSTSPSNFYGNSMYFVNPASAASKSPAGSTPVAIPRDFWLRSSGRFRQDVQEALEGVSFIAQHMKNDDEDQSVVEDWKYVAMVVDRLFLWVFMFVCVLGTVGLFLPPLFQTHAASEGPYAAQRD
Sequence of a3b4 nAChRs (P32297 32-505): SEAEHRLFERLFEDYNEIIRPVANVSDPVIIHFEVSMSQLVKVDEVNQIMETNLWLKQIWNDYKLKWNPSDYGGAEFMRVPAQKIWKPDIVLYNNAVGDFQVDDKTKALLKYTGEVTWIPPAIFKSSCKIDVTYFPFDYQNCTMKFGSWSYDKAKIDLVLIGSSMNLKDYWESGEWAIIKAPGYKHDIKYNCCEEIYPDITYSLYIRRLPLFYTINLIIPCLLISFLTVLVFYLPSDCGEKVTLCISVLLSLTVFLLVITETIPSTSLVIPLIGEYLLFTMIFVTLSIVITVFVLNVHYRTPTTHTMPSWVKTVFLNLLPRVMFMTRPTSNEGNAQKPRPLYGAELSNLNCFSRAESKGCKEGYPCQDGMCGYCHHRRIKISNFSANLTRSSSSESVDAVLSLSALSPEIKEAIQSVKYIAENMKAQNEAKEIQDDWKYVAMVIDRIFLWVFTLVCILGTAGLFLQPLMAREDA
T1 sequence (P35372 whole entry): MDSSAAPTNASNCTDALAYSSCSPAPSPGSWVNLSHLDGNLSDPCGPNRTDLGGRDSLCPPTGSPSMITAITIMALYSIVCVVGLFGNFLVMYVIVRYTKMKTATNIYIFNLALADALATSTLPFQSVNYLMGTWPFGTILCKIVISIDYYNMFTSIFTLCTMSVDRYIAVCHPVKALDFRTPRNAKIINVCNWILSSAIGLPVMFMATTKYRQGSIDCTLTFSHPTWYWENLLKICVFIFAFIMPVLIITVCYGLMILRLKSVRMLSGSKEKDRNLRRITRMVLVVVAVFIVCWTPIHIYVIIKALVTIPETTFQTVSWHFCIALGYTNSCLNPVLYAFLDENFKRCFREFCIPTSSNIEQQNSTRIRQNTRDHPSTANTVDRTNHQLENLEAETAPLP

Compound | Ratio from 18-MC (relative potency at a3b4 nAChRs) (a3b4 nAChRs; ratio to 18-MC = 1, lower is more potent) | Crossing of the BBB / concentration in brain [1] | Ki (mu opioid receptor (mOR)) [nM] | Potency as inhibitor of the epibatidine-induced calcium response in a3b4 nAChRs, in words (a3b4 nAChRs; compared with 18-MC and noribogaine)
COCC[C@H]1CC2CN3CCc4c([nH]c5ccccc45)[C@](C(=O)OC)(C2)[C@H]13 [Compound 18-MC, 18-methoxycoronaridine] | 1 | cross the BBB and reach micromolar concentrations in brain |  | 
CC[C@H]1CC2C[C@H]3c4[nH]c5ccc(O)cc5c4CCN(C2)C13 [Noribogaine, 12-hydroxyibogamine] |  | cross the BBB and reach micromolar concentrations in brain | 900 | 
Ibogaine |  |  |  | more potent inhibitors than 18-MC
